Results published in ChEMBL document CHEMBL3714716, “Modulators of the relaxin receptor 1” (2015).
Values after ≈ are worked out from the molar mass of the structure shown. Each block holds one molecule with its values, some of them ahead of it. Active and inactive are the calls of the source. The calls are words filed in the database; no cut-off is given here.

Legend:
[1] = molecular target: T1, Relaxin receptor 1 (Homo sapiens, UniProt Q9HBX9); assay: Agonist activity at RXFP1 receptor (unknown origin) expressed in HEK293 cells assessed as stimulation of cAMP production incubated for 30 mins by TR-FRET based HTRF assay; type: functional, cell-based
T1 sequence (Q9HBX9 whole entry): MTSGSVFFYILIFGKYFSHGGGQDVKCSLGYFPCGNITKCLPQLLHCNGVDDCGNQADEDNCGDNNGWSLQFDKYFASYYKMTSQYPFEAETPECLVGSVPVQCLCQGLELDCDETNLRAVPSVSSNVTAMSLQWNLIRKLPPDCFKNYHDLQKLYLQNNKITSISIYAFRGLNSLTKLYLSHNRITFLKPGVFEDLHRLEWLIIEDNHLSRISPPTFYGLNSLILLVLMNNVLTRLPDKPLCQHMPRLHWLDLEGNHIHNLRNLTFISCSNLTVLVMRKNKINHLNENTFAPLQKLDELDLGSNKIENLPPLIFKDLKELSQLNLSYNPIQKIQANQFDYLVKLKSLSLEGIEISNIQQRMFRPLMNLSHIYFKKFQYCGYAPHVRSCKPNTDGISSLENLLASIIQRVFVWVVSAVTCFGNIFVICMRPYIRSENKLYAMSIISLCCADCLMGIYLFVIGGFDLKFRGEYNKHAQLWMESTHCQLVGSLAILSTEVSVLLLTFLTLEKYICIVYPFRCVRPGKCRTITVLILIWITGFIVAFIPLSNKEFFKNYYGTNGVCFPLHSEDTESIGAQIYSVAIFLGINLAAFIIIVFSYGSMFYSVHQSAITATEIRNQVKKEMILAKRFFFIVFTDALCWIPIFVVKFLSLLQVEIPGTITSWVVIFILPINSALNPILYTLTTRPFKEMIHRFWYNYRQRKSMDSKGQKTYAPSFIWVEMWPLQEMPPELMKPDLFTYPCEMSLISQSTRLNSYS

[2] = molecular target: T2, Relaxin receptor 1 (Homo sapiens) (UniProt Q9HBX9); assay: Agonist activity at RXFP1 receptor (unknown origin) expressed in HEK293 cells assessed as stimulation of cAMP production incubated for 30 mins by TR-FRET based HTRF assay relative to forskolin; type: functional, cell-based
T2 sequence (whole entry): T1 sequence (Q9HBX9 whole entry)

[3] = Stimulation of VEGF gene expression in human THP1 cells assessed as change in VEGF mRNA level incubated for 2 hrs by quantitative real time RT-PCR method relative to control; type: functional, cell-based; settings: THP-1
[4] = molecular target: T1, Relaxin receptor 1; assay: Agonist activity at RXFP1 receptor in human THP1 cells assessed as stimulation of cAMP production incubated for 30 mins by HTRF assay; type: functional, cell-based, THP-1
[5] = molecular target: T3, Relaxin receptor 2 (Homo sapiens, UniProt Q8WXD0); assay: Agonist activity at RXFP2 receptor (unknown origin) expressed in HEK293 cells assessed as stimulation of cAMP production incubated for 30 mins by HTRF assay; type: functional, cell-based
T3 sequence (Q8WXD0 whole entry): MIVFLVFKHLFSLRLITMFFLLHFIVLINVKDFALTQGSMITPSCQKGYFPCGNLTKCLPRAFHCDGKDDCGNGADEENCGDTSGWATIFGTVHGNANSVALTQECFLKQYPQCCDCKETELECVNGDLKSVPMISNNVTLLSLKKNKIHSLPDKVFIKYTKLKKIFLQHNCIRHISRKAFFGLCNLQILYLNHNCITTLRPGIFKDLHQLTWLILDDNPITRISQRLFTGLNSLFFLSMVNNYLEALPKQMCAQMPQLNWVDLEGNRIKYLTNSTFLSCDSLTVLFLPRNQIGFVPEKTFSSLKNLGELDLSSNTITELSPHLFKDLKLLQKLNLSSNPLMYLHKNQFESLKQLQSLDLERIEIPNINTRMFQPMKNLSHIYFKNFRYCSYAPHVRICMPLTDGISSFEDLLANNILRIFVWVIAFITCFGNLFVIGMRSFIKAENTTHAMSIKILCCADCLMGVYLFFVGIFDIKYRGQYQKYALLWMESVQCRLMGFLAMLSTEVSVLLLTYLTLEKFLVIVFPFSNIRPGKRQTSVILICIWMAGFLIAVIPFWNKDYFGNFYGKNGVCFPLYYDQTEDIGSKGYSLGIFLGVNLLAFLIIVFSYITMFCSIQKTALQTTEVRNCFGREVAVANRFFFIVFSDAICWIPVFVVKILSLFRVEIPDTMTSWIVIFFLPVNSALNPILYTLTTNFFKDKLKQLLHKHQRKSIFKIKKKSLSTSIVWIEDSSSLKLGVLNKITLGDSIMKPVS

[6] = molecular target: T3, Relaxin receptor 2; assay: Agonist activity at RXFP2 receptor (unknown origin) expressed in HEK293 cells assessed as stimulation of cAMP production incubated for 30 mins by HTRF assay relative to control; type: functional, cell-based
[7] = molecular target: T4, Vasopressin V1b receptor (Homo sapiens, UniProt P47901); assay: Agonist activity at vasopressin receptor 1b (unknown origin) expressed in HEK293 cells assessed as stimulation of cAMP production incubated for 30 mins by HTRF assay; type: functional, cell-based
T4 sequence (P47901 whole entry): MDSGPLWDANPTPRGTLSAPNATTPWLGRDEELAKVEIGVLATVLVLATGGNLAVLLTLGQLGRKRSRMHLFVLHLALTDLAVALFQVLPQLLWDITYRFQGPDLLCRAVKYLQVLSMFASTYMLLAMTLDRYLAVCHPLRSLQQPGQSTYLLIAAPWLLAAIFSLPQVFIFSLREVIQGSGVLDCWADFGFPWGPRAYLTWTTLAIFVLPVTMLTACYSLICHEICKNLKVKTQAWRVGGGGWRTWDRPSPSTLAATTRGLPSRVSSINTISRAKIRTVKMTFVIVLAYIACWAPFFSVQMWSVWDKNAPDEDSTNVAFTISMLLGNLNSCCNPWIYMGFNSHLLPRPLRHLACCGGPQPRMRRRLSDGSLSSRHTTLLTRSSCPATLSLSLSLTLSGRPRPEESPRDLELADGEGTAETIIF

[8] = molecular target: T5, Vasopressin V1b receptor (Homo sapiens) (UniProt P47901); assay: Agonist activity at vasopressin receptor 1b (unknown origin) expressed in HEK293 cells assessed as stimulation of cAMP production incubated for 30 mins by HTRF assay relative to control; type: functional, cell-based
T5 sequence (whole entry): T4 sequence (P47901 whole entry)

[9] = test system: HEK293; assay: Cytotoxic activity against HEK293 cells assessed as reduction in cell viability by measuring ATP level incubated for 72 hrs by ATP cytotoxicity assay; type: cell-based, Homo sapiens
[10] = Cytotoxic activity against HEK293 cells assessed as reduction in cell viability by measuring ATP level incubated for 72 hrs by ATP cytotoxicity assay relative to control; type: cell-based; settings: human, read-out: %max
[11] = Solubility in PBS buffer; type: physicochemical
[12] = Half life in mouse liver microsomes; type: ADME
[13] = molecular target: T2, Relaxin receptor 1 (Homo sapiens); assay: Agonist activity at RXFP1 receptor (unknown origin) expressed in HEK293 cells assessed as increase cell impedance at 250 to 750 nM measured every 10 to 30 secs for 1 hr by real time cell analyzer method; type: functional, cell-based
[14] = Homo sapiens, HEK293, 72 h, read-out: EC50

Compound: O=C(Nc1ccc2cc[nH]c2c1)c1ccccc1NC(=O)C1CCCCC1
AC50 ([1]; hek293): Not Active
%max [2]: inactive
AC50 ([5]; read-out: AC50): 9400 nM
%max [6]: 47%
AC50 [7]: Not Active
%max [8]: < 30%
EC50 ([9]; hek293): Non-toxic
Emax at 72 h [10]: < 30%
solubility [11]: 1.7 µM (≈ 0.614 µg/mL)

Compound: COc1ccccc1C(=O)Nc1ccccc1C(=O)Nc1cccc(S(=O)(=O)C(F)(F)F)c1
AC50 ([1]; read-out: AC50): 188 nM
%max [2]: 99%
fold change (FC) [3]: 1.4
EC50 [4]: 358 nM

Compound: CCCCOc1ccccc1C(=O)Nc1ccccc1C(=O)Nc1cccc(S(=O)(=O)C(F)(F)F)c1
AC50 ([1]; read-out: AC50): 47 nM
%max [2]: 98%
fold change (FC) [3]: 1.6
Activity [13]: Active
EC50 [4]: 124 nM

Compound: O=C(NCc1cccs1)c1ccccc1NC(=O)C1CCCCC1
AC50 ([1]; read-out: AC50): 118000 nM
%max [2]: 40%

Compound: O=C(Nc1cccc(S(=O)(=O)C(F)(F)F)c1)c1ccccc1NC(=O)c1ccccc1OCC(F)(F)F
AC50 ([1]; read-out: AC50): 67 nM
%max [2]: 97%
fold change (FC) [3]: 1.3
EC50 [4]: 107 nM

Compound: O=C(Nc1cccc(C(F)(F)F)c1)c1cccc(NC(=O)C2CCCCC2)c1
AC50 ([1]; hek293): Not Active
%max [2]: inactive

Compound: O=C(Nc1ccc([N+](=O)[O-])cc1)c1ccccc1NC(=O)C1CCCCC1
AC50 ([1]; read-out: AC50): 74700 nM
%max [2]: 56%

Compound: CC(C)(C)OC(=O)N1CCN(CCOc2ccccc2C(=O)Nc2cccc(C(F)(F)F)c2)CC1
AC50 ([1]; hek293): Not Active
%max [2]: inactive

Compound: O=C(Nc1ccccc1[N+](=O)[O-])c1ccccc1NC(=O)C1CCCCC1
AC50 ([1]; hek293): Not Active
%max [2]: inactive

Compound: O=C(Nc1ccccc1F)c1ccccc1NC(=O)C1CCCCC1
AC50 ([1]; hek293): Not Active
%max [2]: inactive

Compound: CC1CCC(C(=O)Nc2ccccc2C(=O)Nc2cccc(C(F)(F)F)c2)CC1 (configuration not stated)
AC50 ([1]; read-out: AC50): 2360 nM
%max [2]: 92%

Compound: O=C(Nc1cccc(C(F)(F)F)c1)c1ccccc1NC(=O)C1CCCCC1
AC50 ([1]; read-out: AC50): 47 nM
%max [2]: 92%
AC50 ([5]; hek293): Not Active
%max [6]: < 30%
AC50 [7]: Not Active
%max [8]: < 30%
EC50 [9, 14]: 59300 nM
Emax at 72 h [10]: -53%
solubility [11]: 5.3 µM (≈ 2.07 µg/mL)

Compound: O=C(Nc1cccc(C(F)(F)F)c1)c1ccccc1NCC1CCCCC1
AC50 ([1]; read-out: AC50): 5930 nM
%max [2]: 77%

Compound: O=C(Nc1ccc(Br)cc1)c1ccccc1NC(=O)C1CCCCC1
AC50 ([1]; read-out: AC50): 118000 nM
%max [2]: 50%

Now from value to molecule, other results behind:

AC50 ([1]; read-out: AC50): 297 nM
%max [2]: 99%
EC50 [4]: 523 nM
Compound: COc1ccccc1C(=O)Nc1ccccc1C(=O)Nc1cccc(SC(F)(F)F)c1
fold change (FC) [3]: 1.2

AC50 ([1]; read-out: AC50): 7470 nM
%max [2]: 51%
AC50 ([5]; hek293): Not Active
%max [6]: < 30%
AC50 [7]: Not Active
%max [8]: < 30%
solubility [11]: 17 µM (≈ 6.55 µg/mL)
Compound: O=C(Nc1ccccc1C(=O)Nc1cccc(C(F)(F)F)c1)c1ccncc1
EC50 [9, 14]: 9400 nM
Emax at 72 h [10]: 83%

AC50 ([1]; read-out: AC50): 5930 nM
%max [2]: 95%
AC50 ([5]; hek293): Not Active
%max [6]: < 30%
AC50 [7]: Not Active
%max [8]: < 30%
solubility [11]: 7 µM (≈ 2.7 µg/mL)
Compound: O=C(Nc1ccccc1C(=O)Nc1cccc(C(F)(F)F)c1)c1cccnc1
EC50 [9, 14]: 9400 nM
Emax at 72 h [10]: 85%

AC50 ([1]; read-out: AC50): 14900 nM
%max [2]: 93%
AC50 ([5]; read-out: AC50): 7470 nM
%max [6]: 38%
AC50 [7]: Not Active
%max [8]: < 30%
solubility [11]: < 1.1 µM
Compound: O=C(Nc1ccccc1C(=O)Nc1cccc(C(F)(F)F)c1)c1ccno1
Emax at 72 h [10]: -73%

AC50 ([1]; read-out: AC50): 6660 nM
%max [2]: 81%
AC50 ([5]; read-out: AC50): 3340 nM
%max [6]: 54%
AC50 [7]: Not Active
%max [8]: < 30%
solubility [11]: 2.9 µM (≈ 1.24 µg/mL)
Compound: O=C(Nc1ccccc1C(=O)Nc1cccc(C(F)(F)F)c1)c1ccc2c(c1)OCO2
EC50 [9, 14]: 3740 nM
Emax at 72 h [10]: -31%

%max [2]: 99%
EC50 [4]: 362 nM
Compound: CCOc1ccccc1C(=O)Nc1ccccc1C(=O)Nc1cccc(S(=O)(=O)C(F)(F)F)c1
fold change (FC) [3]: 2.3

AC50 ([1]; read-out: AC50): 1880 nM
%max [2]: 88%
AC50 ([5]; hek293): Not Active
%max [6]: < 30%
AC50 [7]: Not Active
%max [8]: < 30%
solubility [11]: 3.3 µM (≈ 1.29 µg/mL)
half-life [12]: 1.67 h
Compound: O=C(Nc1ccccc1C(=O)Nc1cccc(C(F)(F)F)c1)c1cccs1
Emax at 72 h [10]: -78%

AC50 ([1]; read-out: AC50): 11800 nM
%max [2]: 90%
AC50 ([5]; hek293): Not Active
%max [6]: < 30%
AC50 [7]: Not Active
%max [8]: < 30%
solubility [11]: 6.3 µM (≈ 2.67 µg/mL)
Compound: O=C(Nc1cccc(C(F)(F)F)c1)c1ccccc1NC(=O)c1cccc2nc[nH]c12
Emax at 72 h [10]: -76%

AC50 ([1]; read-out: AC50): 52 nM
%max [2]: 98%
EC50 [4]: 105 nM
Compound: CCCOc1ccccc1C(=O)Nc1ccccc1C(=O)Nc1cccc(S(=O)(=O)C(F)(F)F)c1
fold change (FC) [3]: 1.5

AC50 ([1]; read-out: AC50): 1060 nM
%max [2]: 93%
Compound: CCOc1ccccc1C(=O)Nc1ccccc1C(=O)Nc1cccc(C(C)(C)C)c1

AC50 ([1]; read-out: AC50): 1880 nM
%max [2]: 96%
Compound: O=C(Nc1ccccc1C(=O)Nc1cccc(C(F)(F)F)c1)c1cccc(Cl)c1

AC50 ([1]; read-out: AC50): 2970 nM
%max [2]: 95%
Compound: O=C(Nc1ccccc1C(=O)Nc1cccc(C(F)(F)F)c1)c1cccc(C(F)(F)F)c1

AC50 ([1]; read-out: AC50): 265 nM
%max [2]: 94%
EC50 [4]: 471 nM
Compound: CCOc1ccccc1C(=O)Nc1ccccc1C(=O)Nc1cccc(C(F)(F)F)c1
fold change (FC) [3]: 1.9

AC50 ([1]; hek293): Not Active
%max [2]: inactive
Compound: CCOc1ccccc1C(=O)Nc1ccccc1C(=O)Nc1cccc(-c2nnn[nH]2)c1

AC50 ([1]; read-out: AC50): 74700 nM
%max [2]: 64%
Compound: CCOc1ccccc1C(=O)Nc1ccccc1C(=O)Nc1ccncc1

AC50 ([1]; hek293): Not Active
%max [2]: inactive
Compound: O=C(Nc1cccc(C(F)(F)F)c1)c1ccccc1NC(=O)c1ccccc1OCCN1CCNCC1

AC50 ([1]; read-out: AC50): 2970 nM
%max [2]: 75%
Compound: O=C(Nc1cccc(C(F)(F)F)c1)c1ccccc1NC(=O)C1CCC1

AC50 ([1]; read-out: AC50): 7470 nM
%max [2]: 42%
Compound: COc1cccc(OC)c1C(=O)Nc1ccccc1C(=O)Nc1cccc(C(F)(F)F)c1
